Laboratory results from publication PMC11589570, “Critical assessment of LC3/GABARAP ligands used for degrader development and ligandability of LC3/GABARAP binding pockets” (Nature Communications, 2024).
Where “and” joins values, the source holds several entries; their conditions need not be identical. Identical values can stand only once. Entries after “also recorded” stand apart in the source; their conditions may differ. Like-named read-outs stand apart in the source and are kept apart here.

Tests used:
U2OS cells = experiment: Cell growth assay (IncuCyte confluence over 72 h); type: cell-based; set-up: key to U2OS cell growth: % of well area covered by cells (confluence)
Method in brief: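 U2OS cells were grown in DMEM with 10% FBS for 24 h before treatment. Confluence was then tracked by IncuCyte phase imaging over 72 h and expressed as % of well area covered by cells. Each point is the average of three wells.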

GABARAPL2 = GABARAPL2 (Homo sapiens, UniProt P60520); conditions: for CSP: GABARAPL2:ligand molar ratio 1:2; for 3D Mapping code: molar ratio 1:2
Sequence of GABARAPL2 (P60520 whole entry): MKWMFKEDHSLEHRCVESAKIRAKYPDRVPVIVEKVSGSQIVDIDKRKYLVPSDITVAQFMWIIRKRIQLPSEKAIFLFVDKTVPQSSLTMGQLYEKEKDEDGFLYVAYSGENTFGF

SMILES: O=C1Nc2ccc(I)cc2C1=Cc1cc(Br)c(O)c(Br)c1 [compound 4]
- U2OS cell growth (U2OS cells; 100 nM, time 0 h, listed as 10O5): 16.9992 and 15.7304 and 22.471
- U2OS cell growth (U2OS cells; 100 nM, time 2 h, listed as 10O5): 30.0536 and 23.3693 and 30.9556
- U2OS cell growth (U2OS cells; 100 nM, time 4 h, listed as 10O5): 26.8783 and 18.0548 and 26.389
- U2OS cell growth (U2OS cells; 100 nM, time 6 h, listed as 10O5): 32.427 and 24.5344 and 29.4691
- U2OS cell growth (U2OS cells; 500 nM, time 0 h, listed as 10O5): 22.1626 and 25.7214 and 24.1436
- U2OS cell growth (U2OS cells; 500 nM, time 2 h, listed as 10O5): 30.4879 and 29.4429 and 31.5602
- U2OS cell growth (U2OS cells; 500 nM, time 4 h, listed as 10O5): 27.0048 and 26.6361 and 29.202
- U2OS cell growth (U2OS cells; 500 nM, time 6 h, listed as 10O5): 26.7875 and 33.8054 and 33.8287
- U2OS cell growth (U2OS cells; 500 nM, time 8 h): 33.7413
- U2OS cell growth (U2OS cells; 500 nM, time 10 h): 39.0222
- U2OS cell growth (U2OS cells; 1 uM, time 0 h, listed as 10O5): 28.8978 and 24.3384 and 24.2638
- U2OS cell growth (U2OS cells; 1 uM, time 2 h, listed as 10O5): 33.9341 and 25.1214 and 23.3142
- U2OS cell growth (U2OS cells; 1 uM, time 4 h, listed as 10O5): 34.8975 and 25.1189 and 23.4121
- U2OS cell growth (U2OS cells; 1 uM, time 6 h, listed as 10O5): 36.2035 and 30.6761 and 30.4629
- U2OS cell growth (U2OS cells; 1 uM, time 8 h, listed as 10O5): 37.0589 and 28.0551 and 29.5538
- U2OS cell growth (U2OS cells; 1 uM, time 10 h, listed as 10O5): 40.6527 and 32.3336 and 34.2928
- U2OS cell growth (U2OS cells; 1 uM, time 12 h, listed as 10O5): 39.0418
- U2OS cell growth (U2OS cells; 3 uM, time 0 h, listed as 10O5): 28.8395 and 29.1487 and 34.5356
- U2OS cell growth (U2OS cells; 3 uM, time 2 h, listed as 10O5): 33.8786 and 32.6567 and 36.3335
- U2OS cell growth (U2OS cells; 3 uM, time 4 h, listed as 10O5): 28.2335 and 26.3394 and 40.569
- U2OS cell growth (U2OS cells; 3 uM, time 6 h, listed as 10O5): 37.1398 and 33.8156 and 39.1483
- U2OS cell growth (U2OS cells; 3 uM, time 8 h, listed as 10O5): 34.9068 and 36.3207 and 39.5562
- U2OS cell growth (U2OS cells; 3 uM, time 10 h, listed as 10O5): 41.312 and 42.3386 and 42.5694
- U2OS cell growth (U2OS cells; 3 uM, time 12 h, listed as 10O5): 40.1427
- U2OS cell growth (U2OS cells; 5 uM, time 0 h, listed as 10O5): 31.0558 and 26.3625 and 29.5321
- U2OS cell growth (U2OS cells; 5 uM, time 2 h, listed as 10O5): 36.0354 and 28.3396 and 34.1005
- U2OS cell growth (U2OS cells; 5 uM, time 4 h, listed as 10O5): 37.417 and 32.4374 and 40.4577
- U2OS cell growth (U2OS cells; 5 uM, time 6 h, listed as 10O5): 38.4528 and 33.2156 and 39.1806
- U2OS cell growth (U2OS cells; 5 uM, time 8 h, listed as 10O5): 37.3748 and 33.0274 and 39.2246
- U2OS cell growth (U2OS cells; 5 uM, time 10 h, listed as 10O5): 41.1433 and 35.6497 and 45.4152
- U2OS cell growth (U2OS cells; 10 uM, time 0 h, listed as 10O5): 20.3118 and 28.5412 and 26.4263
- U2OS cell growth (U2OS cells; 10 uM, time 2 h, listed as 10O5): 23.006 and 27.9929 and 32.8968
- U2OS cell growth (U2OS cells; 10 uM, time 4 h, listed as 10O5): 30.6648 and 35.9437 and 41.1141
- U2OS cell growth (U2OS cells; 10 uM, time 6 h, listed as 10O5): 29.7401 and 38.8973 and 43.1309
- U2OS cell growth (U2OS cells; 10 uM, time 8 h, listed as 10O5): 28.0658 and 36.5966 and 41.861
- U2OS cell growth (U2OS cells; 10 uM, time 10 h, listed as 10O5): 30.9876 and 40.5217 and 49.4843
- interaction in 2D NMR titration (GABARAPL2; GABARAPL2, listed as 10O5): only 10O5 (4) was able to interact with GABARAPL2; also recorded: prominent CSP
- CSP induced, K48 HN resonance (GABARAPL2; Molar ratio 10O5:GABARAPL2 0.5): 0.08111
- CSP induced, L50 HN resonance (GABARAPL2; Molar ratio 10O5:GABARAPL2 0.5): 0.0416
- CSP induced, R28 HN resonance (GABARAPL2; Molar ratio 10O5:GABARAPL2 0.5): 0.0281
- CSP induced, V16 HN resonance (GABARAPL2; Molar ratio 10O5:GABARAPL2 0.5): 0.00761
- CSP induced, V31 HN resonance (GABARAPL2; Molar ratio 10O5:GABARAPL2 0.5): 0.04746
- CSP induced, Y109 HN resonance (GABARAPL2; Molar ratio 10O5:GABARAPL2 0.5): 0.01545
- CSP induced, K48 HN resonance (GABARAPL2; Molar ratio 10O5:GABARAPL2 1): 0.1338
- CSP induced, L50 HN resonance (GABARAPL2; Molar ratio 10O5:GABARAPL2 1): 0.06831
- CSP induced, R28 HN resonance (GABARAPL2; Molar ratio 10O5:GABARAPL2 1): 0.04204
- CSP induced, V16 HN resonance (GABARAPL2; Molar ratio 10O5:GABARAPL2 1): 0.03636
- CSP induced, V31 HN resonance (GABARAPL2; Molar ratio 10O5:GABARAPL2 1): 0.08123
- CSP induced, Y109 HN resonance (GABARAPL2; Molar ratio 10O5:GABARAPL2 1): 0.03416
- CSP induced, K48 HN resonance (GABARAPL2; Molar ratio 10O5:GABARAPL2 2): 0.1662
- CSP induced, L50 HN resonance (GABARAPL2; Molar ratio 10O5:GABARAPL2 2): 0.09155
- CSP induced, R28 HN resonance (GABARAPL2; Molar ratio 10O5:GABARAPL2 2): 0.06538
- CSP induced, V16 HN resonance (GABARAPL2; Molar ratio 10O5:GABARAPL2 2): 0.05012
- CSP induced, V31 HN resonance (GABARAPL2; Molar ratio 10O5:GABARAPL2 2): 0.1265
- CSP induced, Y109 HN resonance (GABARAPL2; Molar ratio 10O5:GABARAPL2 2): 0.04477
- CSP induced, K48 HN resonance (GABARAPL2; Molar ratio 10O5:GABARAPL2 4): 0.2294
- CSP induced, L50 HN resonance (GABARAPL2; Molar ratio 10O5:GABARAPL2 4): 0.1327
- CSP induced, R28 HN resonance (GABARAPL2; Molar ratio 10O5:GABARAPL2 4): 0.07911
- CSP induced, V16 HN resonance (GABARAPL2; Molar ratio 10O5:GABARAPL2 4): 0.07334
- CSP induced, V31 HN resonance (GABARAPL2; Molar ratio 10O5:GABARAPL2 4): 0.1464
- CSP induced, Y109 HN resonance (GABARAPL2; Molar ratio 10O5:GABARAPL2 4): 0.06741
- CSP (GABARAPL2; residue A19): 0.086 ppm
- 3D Mapping code (GABARAPL2; residue A19): Orange
- CSP (GABARAPL2; residue A23): 0.058 ppm
- 3D Mapping code (GABARAPL2; residue A23): Orange
- CSP (GABARAPL2; residue A58): 0.016 ppm
- CSP (GABARAPL2; residue A75): 0.00255 ppm
- CSP (GABARAPL2; residue A108): 0.017 ppm
- CSP (GABARAPL2; residue C15): 0.019 ppm
- CSP (GABARAPL2; residue D8): 0.007 ppm
- CSP (GABARAPL2; residue D27): 0.029 ppm
- 3D Mapping code (GABARAPL2; residue D27): Light green
- CSP (GABARAPL2; residue D43): 0.009 ppm
- CSP (GABARAPL2; residue D45): 0.030 ppm
- 3D Mapping code (GABARAPL2; residue D45): Light green
- CSP (GABARAPL2; residue D54): 0.029 ppm
- 3D Mapping code (GABARAPL2; residue D54): Light green
- CSP (GABARAPL2; residue D81): 0.022 ppm
- CSP (GABARAPL2; residue D100): 0.018 ppm
- CSP (GABARAPL2; residue D102): 0.033 ppm
- 3D Mapping code (GABARAPL2; residue D102): Light green
- CSP (GABARAPL2; residue E7): 0.029 ppm
- 3D Mapping code (GABARAPL2; residue E7): Light green
- CSP (GABARAPL2; residue E12): 0.015 ppm
- CSP (GABARAPL2; residue E17): 0.081 ppm
- 3D Mapping code (GABARAPL2; residue E17): Orange
- CSP (GABARAPL2; residue E34): 0.060 ppm
- 3D Mapping code (GABARAPL2; residue E34): Orange
- CSP (GABARAPL2; residue E73): 0.00458 ppm
- CSP (GABARAPL2; residue E96): 0.019 ppm
- CSP (GABARAPL2; residue E98): 0.025 ppm
- CSP (GABARAPL2; residue E101): 0.007 ppm
- CSP (GABARAPL2; residue E112): 0.00563 ppm
- CSP (GABARAPL2; residue F60): 0.00542 ppm
- CSP (GABARAPL2; residue F77): 0.006 ppm
- CSP (GABARAPL2; residue F79): 0.007 ppm
- CSP (GABARAPL2; residue F104): 0.059 ppm
- 3D Mapping code (GABARAPL2; residue F104): Orange
- CSP (GABARAPL2; residue F115): 0.012 ppm
- CSP (GABARAPL2; residue G38): 0.040 ppm
